This passage reports IC50 results from patent publication US20170166555A1, “FUNCTIONALISED AND SUBSTITUTED INDOLES AS ANTI-CANCER AGENTS” (Novogen Limited, priority 2013, published 2017).

What all share (experiment): Anti-proliferative assay, cell-titre luminescent reagent, 72 h (GVK-BIO)
Format in all cases: cell-based

Assay [1] has as its system A549 non-small cell lung carcinoma cells. To be noted: Homo sapiens, read-out: IC50/μM Lung (NSLC) A549. On the procedure: (§1) The ability of compounds 4001, 4002, 4008, 4010, 4011, 4013-4015, 4018, 4026, 4045-4113 and 4115-4127 to inhibit the proliferation of cancer cells representative of neuroblastoma, melanoma, prostate cancer, colorectal cancer, non-small cell lung carcinoma, and triple negative breast cancer was assessed. These studies were conducted by contract research (GVK-BIO). Briefly, a pre-determined number of cells as calculated from cell growth assays for each of the cell lines employed were seeded into their respective culture medium (using ATCC culture parameters—http://www.atcc.org) and cultured for 24 h at 37° C. and 5% CO2 in 96-well culture plates. Once attached, each cell line was then exposed to various concentrations of each respective analogue (30, 3, 0.3 and 0.03 μM for compounds in Tables 2, 3 and 4; 30, 10, 3, 1, 0.3 and 0.1 μM for compounds in Table 5), cultured for a further 72 h and exposed to cell-titre luminescent reagent (100 μL/well) for a further 30 min). Luminescence was captured using an EnVision multilabel reader and the data for each analogue concentration compared against no treatment control. For compounds in Tables 2-4, semi-log plots of Percent of Control versus concentration were prepared and IC50 determined using linear regression analysis. For compounds in Table 5, cell viability was normalized to control (vehicle alone) and dose-response curves, and half maximal effective concentration (EC50) values were determined using Graph Pad Prism 6 (nonlinear regression sigmoidal dose-response variable slope).

For assay [2], the system named is CaCo2 colorectal cancer cells. To be noted: Homo sapiens. On the procedure: as §1
For assay [3], the system named is DU145 prostate cancer cells. To be noted: Homo sapiens. As for the experimental part: as §1
In assay [4] the test system is MDA-MB-231 triple negative breast cancer cells. The note with it: Homo sapiens. As for the experimental part:
as §1

In assay [5] the test system is PC3 prostate cancer cells. On the procedure: as §1
The test system of a further assay is SK-Mel-28 melanoma cells. To be noted: Homo sapiens. As for the experimental part: as §1
Assay [6] concerns SK-N-SH neuroblastoma cells. To be noted: Homo sapiens. As for the experimental part:
as §1

The mark [7] stands for this setting: A549, 72 h, 30, 3, 0.3 and 0.03 μM, linear regression (Tables 2-4).
[8] abbreviates: Caco-2, 72 h, 30, 3, 0.3 and 0.03 μM, linear regression (Tables 2-4).
Setting [9] is: DU-145, 72 h, 30, 3, 0.3 and 0.03 μM, linear regression (Tables 2-4).
The mark [10] stands for this setting: MDA-MB-231, 72 h, 30, 3, 0.3 and 0.03 μM, linear regression (Tables 2-4).
Where [11] appears, read: 30, 3, 0.3 and 0.03 μM, linear regression (Tables 2-4).
[12] abbreviates: SK-MEL-28, 72 h, 30, 3, 0.3 and 0.03 μM, linear regression (Tables 2-4).
[13] abbreviates: SK-N-SH, 30, 3, 0.3 and 0.03 μM, linear regression (Tables 2-4).
Where [14] appears, read: A549, 72 h, 30, 10, 3, 1, 0.3 and 0.1 μM, nonlinear regression (Table 5).
[15] abbreviates: Caco-2, 72 h, 30, 10, 3, 1, 0.3 and 0.1 μM, nonlinear regression (Table 5).
[16] abbreviates: DU-145, 72 h, 30, 10, 3, 1, 0.3 and 0.1 μM, nonlinear regression (Table 5).
[17] abbreviates: MDA-MB-231, 72 h, 30, 10, 3, 1, 0.3 and 0.1 μM, nonlinear regression (Table 5).
Where [18] appears, read: 30, 10, 3, 1, 0.3 and 0.1 μM, nonlinear regression (Table 5).
Where [19] appears, read: SK-MEL-28, 72 h, 30, 10, 3, 1, 0.3 and 0.1 μM, nonlinear regression (Table 5).
Setting [20] is: SK-N-SH, 30, 10, 3, 1, 0.3 and 0.1 μM, nonlinear regression (Table 5).

Read-outs that look alike come from different tables or passages of the source.

`Cc1c(C)n(CCCN2CCN(C)CC2)c2ccc(C(=O)N3CCN(CCc4ccc5c(c4)OCO5)CC3)cc12` [Compound 4123, (4-(2-(benzo[d][1,3]dioxol-5-yl)ethyl)piperazin-1-yl)(2,3-dimethyl-1-(3-(4-methylpiperazin-1-yl)propyl)-1H-indol-5-yl)methanone]: the IC50 in assay [1] (setting [7]) was 15.6 µM; in assay [2] (setting [8]), greater than 30 µM; in assay [3] (setting [9]), greater than 30 µM; in assay [4] (setting [10]) it was 16.3 µM; in assay [5] (setting [11]) it was greater than 30 µM; with SK-Mel-28 melanoma cells (setting [12]), 16.8 µM. Further, the IC50 in assay [6] (setting [13]) is 12.3 µM.
Take `Cc1c(C)n(CCCN(C)C)c2ccc(Nc3ccc(C(=O)Nc4ccc(F)cc4)cc3)cc12` [Compound 4104, 4-((1-(3-(dimethylamino)propyl)-2,3-dimethyl-1H-indol-5-yl)amino)-N-(4-fluorophenyl)benzamide]: the IC50 in assay [1] (setting [7]) was 4 µM; in assay [2] (setting [8]) it was 3.2 µM; in assay [3] (setting [9]), 4.1 µM; in assay [4] (setting [10]) it was 4.2 µM; in assay [5] (setting [11]) it was 4.1 µM; in the assay with SK-Mel-28 melanoma cells (setting [12]) it was 3.6 µM. Also, the IC50 in assay [6] (setting [13]) stood at 3.4 µM.
Turning to `Cc1c(C)n(CCCN(C)C)c2ccc(C(=O)N3CCN(CCc4ccccc4)CC3)cc12` [Compound 4018, (1-(3-(dimethylamino)propyl)-2,3-dimethyl-1H-indol-5-yl)(4-phenethylpiperazin-1-yl)methanone], the IC50 in assay [1] (setting [7]) is greater than 30 µM; in assay [2] (setting [8]), greater than 30 µM; in assay [3] (setting [9]) it was greater than 30 µM; in assay [4] (setting [10]), greater than 30 µM; in assay [5] (setting [11]), greater than 30 µM; with SK-Mel-28 melanoma cells (setting [12]) it was 67.3 µM. For the same compound, in assay [6] (setting [13]), the IC50 is greater than 30 µM.
As for `Cc1c(C)n(CCCN(C)C)c2ccc(Oc3ccc(C(=O)Nc4cccc(F)c4)cc3)cc12` [Compound 4096, 4-((1-(3-(dimethylamino)propyl)-2,3-dimethyl-1H-indol-5-yl)oxy)-N-(3-fluorophenyl)benzamide], the IC50 in assay [1] (setting [7]) was found to be 2.9 µM; in assay [2] (setting [8]), 2.7 µM; in assay [3] (setting [9]), 3.3 µM; in assay [4] (setting [10]), 2.6 µM; in assay [5] (setting [11]), 2.5 µM; with SK-Mel-28 melanoma cells (setting [12]), 3.5 µM. The same compound returned an IC50 in assay [6] (setting [13]) of 3.7 µM.
`Cc1c(C)n(CCCN(C)C)c2ccc(Cc3ccc(C(=O)Nc4cccc(F)c4)cc3)cc12` [Compound 4085, 4-((1-(3-(dimethylamino)propyl)-2,3-dimethyl-1H-indol-5-yl)methyl)-N-(3-fluorophenyl)benzamide]: the IC50 in assay [1] (setting [7]) is 10.1 µM; in assay [2] (setting [8]), 10.9 µM; in assay [3] (setting [9]) it was 11 µM; in assay [4] (setting [10]) it was 11.2 µM; in assay [5] (setting [11]) it was 10.1 µM; with SK-Mel-28 melanoma cells (setting [12]), 10.5 µM. This compound had an IC50 in assay [6] (setting [13]) of 9.8 µM.
On to `Cc1c(C)n(CCCN(C)C)c2ccc(Nc3cccc(C(=O)Nc4ccc(F)cc4)c3)cc12` [Compound 4072, 3-((1-(3-(dimethylamino)propyl)-2,3-dimethyl-1H-indol-5-yl)amino)-N-(4-fluorophenyl)benzamide], for which the IC50 in assay [1] (setting [7]) came to 1.9 µM; in assay [2] (setting [8]), 2 µM; in assay [3] (setting [9]) it was 2.9 µM; in assay [4] (setting [10]), 1.7 µM; in assay [5] (setting [11]), 3.8 µM; in the assay on SK-Mel-28 melanoma cells (setting [12]), 3 µM. Besides, the IC50 in assay [6] (setting [13]) worked out at 1.7 µM.
On to `CN(C)CCCn1ccc2cc(Oc3cccc(C(=O)Nc4cccc(F)c4)c3)ccc21` [Compound 4059, 3-((1-(3-(dimethylamino)propyl)-1H-indol-5-yl)oxy)-N-(3-fluorophenyl)benzamide], for which the IC50 in assay [1] (setting [7]) is 13.4 µM; in assay [2] (setting [8]), greater than 30 µM; in assay [3] (setting [9]) it was greater than 30 µM; in assay [4] (setting [10]) it was 13.2 µM; in assay [5] (setting [11]) it was greater than 30 µM; with SK-Mel-28 melanoma cells (setting [12]), 15.5 µM. The compound also came in with an IC50 in assay [6] (setting [13]) of 11.3 µM.
For `CN(C)CCCn1ccc2cc(Nc3cccc(C(=O)Nc4cccc(F)c4)c3)ccc21` [Compound 4070, 3-((1-(3-(dimethylamino)propyl)-1H-indol-5-yl)amino)-N-(3-fluorophenyl)benzamide], the IC50 in assay [1] (setting [7]) is 2.3 µM; in assay [2] (setting [8]), 1.7 µM; in assay [3] (setting [9]) it was 3.1 µM; in assay [4] (setting [10]), 1.7 µM; in assay [5] (setting [11]), 2.9 µM; in the assay with SK-Mel-28 melanoma cells (setting [12]), 2.5 µM. The IC50 in assay [6] (setting [13]) turned out to be 2.2 µM.
Consider `CN(C)CCCn1ccc2cc(Oc3ccc(C(=O)Nc4ccc5c(c4)OCO5)cc3)ccc21` [Compound 4090, N-(benzo[d][1,3]dioxol-5-yl)-4-((1-(3-(dimethylamino)propyl)-1H-indol-5-yl)oxy)benzamide], for which the IC50 was 8.4 µM in assay [1] (setting [14]); 5.3 µM in assay [2] (setting [15]); 4.6 µM in assay [3] (setting [16]); 9.6 µM in assay [4] (setting [17]); 2.5 µM in assay [5] (setting [18]); 7.2 µM in the assay with SK-Mel-28 melanoma cells (setting [19]). Also, the IC50 in assay [6] (setting [20]) came to 6.3 µM.
In the case of `Cc1c(C)n(CCCN2CCN(C)CC2)c2ccc(CN3CCN(CCc4ccc(F)cc4)CC3)cc12` [Compound 4110, 5-((4-(4-fluorophenethyl)piperazin-1-yl)methyl)-2,3-dimethyl-1-(3-(4-methylpiperazin-1-yl)propyl)-1H-indole], the IC50 was determined as 33.2 µM in assay [1] (setting [14]); 12.9 µM in assay [2] (setting [15]); 22.7 µM in assay [3] (setting [16]); 6.9 µM in assay [4] (setting [17]); 17.7 µM in assay [5] (setting [18]); 4.4 µM in the assay on SK-Mel-28 melanoma cells (setting [19]). For the same compound, the IC50 in assay [6] (setting [20]) was found to be 4.2 µM.
For `Cc1c(C)n(CCCN2CCN(C)CC2)c2ccc(C(=O)N3CCN(CCc4ccccc4)CC3)cc12` [Compound 4127, (2,3-dimethyl-1-(3-(4-methylpiperazin-1-yl)propyl)-1H-indol-5-yl)(4-phenethylpiperazin-1-yl)methanone], the IC50 is 13.1 µM in assay [1] (setting [7]); 10.7 µM in assay [2] (setting [8]); greater than 30 µM in assay [3] (setting [9]); 13.5 µM in assay [4] (setting [10]); 12.9 µM in assay [5] (setting [11]); 14.4 µM with SK-Mel-28 melanoma cells (setting [12]). In addition, in assay [6] (setting [13]), the IC50 was determined as 10.5 µM.
`CN(C)CCCn1ccc2cc(Cc3cccc(C(=O)Nc4cccc(F)c4)c3)ccc21` [Compound 4048, 3-((1-(3-(dimethylamino)propyl)-1H-indol-5-yl)methyl)-N-(3-fluorophenyl)benzamide]: the IC50 in assay [1] (setting [7]) turned out to be 3 µM; in assay [2] (setting [8]), 6.9 µM; in assay [3] (setting [9]), 3.3 µM; in assay [4] (setting [10]), 3.2 µM; in assay [5] (setting [11]), 3.8 µM; with SK-Mel-28 melanoma cells (setting [12]), 3.1 µM. This compound came in with an IC50 in assay [6] (setting [13]) of 3.9 µM.
Regarding `COc1ccc(NC(=O)c2cccc(Nc3ccc4c(c3)c(C)c(C)n4CCCN(C)C)c2)cc1` [Compound 4073, 3-((1-(3-(dimethylamino)propyl)-2,3-dimethyl-1H-indol-5-yl)amino)-N-(4-methoxyphenyl)benzamide], the IC50 came to 3.9 µM in assay [1] (setting [7]); 2.8 µM in assay [2] (setting [8]); 4 µM in assay [3] (setting [9]); 3.4 µM in assay [4] (setting [10]); 4.2 µM in assay [5] (setting [11]); 3.1 µM with SK-Mel-28 melanoma cells (setting [12]). The IC50 in assay [6] (setting [13]) is 2.6 µM.
Turning to `CN(C)CCCn1ccc2cc(Oc3ccc(C(=O)Nc4ccc(F)cc4)cc3)ccc21` [Compound 4088, 4-((1-(3-(dimethylamino)propyl)-1H-indol-5-yl)oxy)-N-(4-fluorophenyl)benzamide], the IC50 in assay [1] (setting [7]) amounted to 3.4 µM; in assay [2] (setting [8]), 4.1 µM; in assay [3] (setting [9]), 3.3 µM; in assay [4] (setting [10]), 3.8 µM; in assay [5] (setting [11]), 3.5 µM; in the assay with SK-Mel-28 melanoma cells (setting [12]) it was 4.3 µM. This compound came in with an IC50 in assay [6] (setting [13]) of 3.4 µM.
